Data as given in ChEMBL document CHEMBL1131967, “BN 80927: a novel homocamptothecin with inhibitory activities on both topoisomerase I and topoisomerase II” (Bioorg Med Chem Lett, 1999).

How the values were obtained:
Format in all cases: functional, cell-based
DU-145 = test: Antiproliferative activity against human DU145 prostate cell line
HT-29 = test: Antiproliferative activity against human HT-29 colon cell line
MCF7 = test: Antiproliferative activity against human MCF-7 breast cell line
SK-OV-3 = test: Antiproliferative activity against human SKOV-3 ovarian cell line

SMILES | IC50 (DU-145) [nM] | IC50 (HT-29) [nM] | IC50 (MCF7) [nM] | IC50 (SK-OV-3) [nM]
CN(C)CCNC(=O)c1cccc2cc3ccccc3nc12 | 2300 | > 10000 | 3800 | 2400
CCc1c2c(nc3ccc(O)cc13)-c1cc3c(c(=O)n1C2)COC(=O)[C@]3(O)CC [7-ETHYL-10-HYDROXYCAMPTOTHECIN] | 13 | 22 | 370 | 720
COc1cc([C@@H]2c3cc4c(cc3[C@@H](O[C@@H]3O[C@@H]5CO[C@@H](C)O[C@H]5[C@H](O)[C@H]3O)[C@H]3COC(=O)[C@H]23)OCO4)cc(OC)c1O [ETOPOSIDE] | 1300 | 200 | 100000 | 4900
Cc1cnc(NCCCN(C)C)c2c1[nH]c1ccc3cc(O)ccc3c12 [INTOPLICINE] | 560 | 890 | 1000 | 450
